Test results as given in US20130204033A1, “ANTIPROLIFERATIVE COMPOUNDS, CONJUGATES THEREOF, METHODS THEREFOR, AND USES THEREOF” (Medarex, Inc., priority 2009, published 2013).
Where two headings read alike, the source gives them in different places.

How the values were obtained:
Type in all cases: cell-based, human
CEM-Cl = assay: ATP luminescence proliferation assay, CEM-C1; conditions: ATP luminescence, CEM-C1, 72 h incubation, read-out: EC50 CEM-C1 (72 h)
Summary of the method: (§1)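 Antiproliferative EC50 values derive from luminescent ATP measurement in human tumor cells exposed for 48, 72 or 96 h to 1:3 serial dilutions of free compounds or their conjugates, with 1.0×10^3 cells seeded per well 3 h beforehand.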

U-87 MG [1] = assay: 3H thymidine proliferation assay, U-87 MG; conditions: 3H thymidine method, 72 h incubation, read-out: EC50, U-87 MG
Summary of the method: (§2)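 EC50 from ^3H-thymidine uptake: 1.0 μCi/well pulse during final 24 h of a 72 h exposure; scintillation count. 1.0×10^4 cells/well, seeded 3 h before 1:3 serial dilutions of unconjugated compound or conjugate.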

BT474 = assay: ATP luminescence proliferation assay, BT474; conditions: ATP luminescence, BT474, 72 h incubation, read-out: EC50 BT474 (72 h)
Summary of the method: as §1

SW-480 = assay: ATP luminescence proliferation assay, SW-480; conditions: ATP luminescence, SW480, 96 h incubation, read-out: EC50 SW480 (96 h)
Summary of the method: as §1

HL-60 [2] = assay: ATP luminescence proliferation assay, HL-60; conditions: ATP luminescence, HL-60, 72 h incubation, read-out: EC50 HL-60 (72 h)
Summary of the method: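 Cells seeded at 1.0×10^3 cells/well for 3 h, then exposed to 1:3 serial dilutions of free compounds or conjugates for 48, 72 or 96 h, as noted. ATP measured by luminescent cell viability kit; EC50 taken as concentration reducing proliferation by 50%.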

Nomo-1 = assay: 3H thymidine proliferation assay, Nomo-1; conditions: 3H thymidine method, 72 h incubation, read-out: EC50, Nomo-1
Summary of the method: as §2

H740 = assay: 3H thymidine proliferation assay, H740; conditions: 3H thymidine method, 72 h incubation, read-out: EC50, H740
Summary of the method: as §2

HL-60 [3] = assay: 3H thymidine proliferation assay, HL-60; conditions: 3H thymidine method, 72 h incubation, read-out: EC50, HL-60
Summary of the method: as §2

UO-31 [4] = assay: ATP luminescence proliferation assay, UO-31; conditions: ATP luminescence, UO-31, 48 h incubation, read-out: EC50 UO-31 (48 h)
Summary of the method: as §1

CEM-C1 = assay: 3H thymidine proliferation assay, CEM-C1; conditions: 3H thymidine method, 72 h incubation, read-out: EC50, CEM-C1
Summary of the method: as §2

LNCaP = assay: 3H thymidine proliferation assay, LNCaP; conditions: 3H thymidine method, 72 h incubation, read-out: EC50, LNCaP
Summary of the method: as §2

U-87 MG [5] = assay: ATP luminescence proliferation assay, U-87 MG; conditions: ATP luminescence, 72 h incubation, read-out: EC50 U-87 MG (72 h)
Summary of the method: as §1

Hep3B = assay: 3H thymidine proliferation assay, Hep3B; conditions: 3H thymidine method, 72 h incubation, read-out: EC50, Hep3B
Summary of the method: as §2

UO-31 [6] = assay: 3H thymidine proliferation assay, UO-31; conditions: 3H thymidine method, 72 h incubation, read-out: EC50, UO-31
Summary of the method: as §2

PC3 = assay: ATP luminescence proliferation assay, PC3; conditions: ATP luminescence, PC3, 48 h incubation, read-out: EC50 PC3 (48 h)
Summary of the method: as §1

DMS53 = assay: 3H thymidine proliferation assay, DMS53; conditions: 3H thymidine method, 72 h incubation, read-out: EC50, DMS53
Summary of the method: as §2

ZR-75 = assay: 3H thymidine proliferation assay, ZR-75; conditions: 3H thymidine method, 72 h incubation, read-out: EC50, ZR-75
Summary of the method: as §2

SKOV3 = assay: ATP luminescence proliferation assay, SKOV3; conditions: ATP luminescence, SKOV3, 48 h incubation, read-out: EC50 SKOV3 (48 h)
Summary of the method: as §1

Q: `COc1cccc2c1C(=O)c1c(O)c3c(c(O)c1C2=O)C[C@@](O)(C(=O)CO)C[C@@H]3O[C@H]1C[C@H](N)[C@H](O)[C@H](C)O1` [Dox, doxorubicin, reference compound] was tested. Which EC50 (CEM-Cl; Homo sapiens) did it give?
A: 161 nM

Q: What about the EC50 (U-87 MG [1]; Homo sapiens, U-87 MG) of the same compound?
A: 106 nM

Q: And the EC50 (BT474; Homo sapiens, BT-474)?
A: 388 nM

Q: And the EC50 (SW-480; Homo sapiens)?
A: 215 nM

Q: What about the EC50 (HL-60 [2]; Homo sapiens) of the same compound?
A: 147 nM

Q: And the EC50 (Nomo-1; Homo sapiens, NOMO-1)?
A: 105 nM

Q: What about the EC50 (H740; Homo sapiens) of the same compound?
A: 255 nM

Q: What about the EC50 (HL-60 [3]; Homo sapiens, HL-60) of the same compound?
A: 56 nM

Q: And the EC50 (UO-31 [4]; Homo sapiens)?
A: 908 nM

Q: And the EC50 (CEM-C1; Homo sapiens, CEM/C1)?
A: 144 nM

Q: What about the EC50 (LNCaP; Homo sapiens, LNCaP) of the same compound?
A: 130 nM

Q: And the EC50 (U-87 MG [5]; Homo sapiens)?
A: 324 nM

Q: What about the EC50 (Hep3B; Homo sapiens, Hep3B) of the same compound?
A: 44 nM

Q: And the EC50 (UO-31 [6]; Homo sapiens, UO-31)?
A: 267 nM

Q: And the EC50 (PC3; Homo sapiens, PC-3)?
A: 1080 nM

Q: And the EC50 (DMS53; Homo sapiens, DMS-53)?
A: 979 nM

Q: And the EC50 (ZR-75; Homo sapiens, ZR75)?
A: 794 nM

Q: What about the EC50 (SKOV3; Homo sapiens, SK-OV-3) of the same compound?
A: 674 nM

Q: What does the source list for `CC[C@H](C)[C@H](NC(=O)[C@H]1CCCCN1C)C(=O)N(COC(=O)CC(C)C)[C@H](C[C@@H](OC(C)=O)c1nc(C(=O)N[C@@H](Cc2ccccc2)C[C@H](C)C(=O)O)cs1)C(C)C` [Tub D, tubulysin D, reference compound]?
A: EC50 (CEM-Cl): 0.003 nM; EC50 (U-87 MG [1]): 0.014 nM; EC50 (BT474): 0.021 nM; EC50 (SW-480): 0.02 nM; EC50 (HL-60 [2]): 0.0096 nM; EC50 (Nomo-1): 0.042 nM; EC50 (H740): 2.2 nM; EC50 (HL-60 [3]): 0.032 nM; EC50 (UO-31 [4]): 0.099 nM; EC50 (CEM-C1): 0.018 nM; EC50 (LNCaP): 0.36 nM; EC50 (U-87 MG [5]): 0.0054 nM; EC50 (Hep3B): 0.022 nM; EC50 (UO-31 [6]): 0.1 nM; EC50 (PC3): 0.039 nM; EC50 (DMS53): 0.21 nM; EC50 (ZR-75): 1.7 nM; EC50 (SKOV3): 0.029 nM
